Measurements from US20070212355A1 (priority 2005, published 2007).
One block for each molecule: values may come before it.

How the values were obtained:
[1] = SEC-SLS self-association of peptides in PBS (pH 7.5); assay type: physicochemical; conditions: 1 mg/ml
Protocol: The self-association poses a challenge to the development and manufacturing of a homogeneous therapeutic.
(§1) Solution molecular weight of the peptides was measured by SEC-SLS. Briefly, peptide solutions in PBS (pH 7.5) at 0.4 to 2.0 mg/mL were fractionated over a Superdex peptide column (Amersham Pharmacia). The eluted peaks were monitored by static light scattering at 690 nm and solution molecular weight was determined at UV 280 nm using the Astra software package (Wyatt Inc.).

[2] = Helical propensity analysis using TFE (CD at 222 nm); assay type: physicochemical; conditions: 0.2 mg/mL in PBS (pH 7.5), MRE at 222 nm
Protocol: In addition, trifluoroethanol (TFE) is known to induce helix formation in peptides (Soennichsen et al., Biochemistry 31: 8791 (1992)). Accordingly, helical propensity analysis using TFE was performed. Briefly, tested peptides were diluted to 0.2 mg/mL in PBS (pH 7.5) containing 0, 1, 5, 15, 33 or 50% TFE. CD spectra were collected and CD plots were generated after data averaging, buffer subtraction and curve smoothing. Helical propensity values were obtained from mean residue ellipticity (MRE) at 222 nm versus % TFE plots. The concentration of TFE that effected a 50% transformation of the CD spectrum at 222 nm was used as a measure of helical propensity.

[3] = CD spectra secondary structure of peptides; assay type: physicochemical; conditions: 0.2 mg/mL in PBS, 25° C.
Protocol: The secondary structures of tested peptides were determined using 0.2 mg/mL peptide solutions in PBS. Briefly, CD spectra were collected in triplicate at 1 nm intervals at 25° C. in 0.1 cm path length cell. Secondary structures were determined by fitting of the CD spectra using CD spectra software (CD Spectra Deconvolution software 2.1). All tested peptides contained peaks corresponding to the presence of alpha helices.

mice = assay: Upper gastrointestinal transit, carmine dye technique, normal mice; assay type: in vivo; conditions: 50 μg/mouse daily s.c. 10 days, 20-minute test period, vs PBS vehicle, FIG. 3
Protocol: To test the effects of A2G-GLP-2 on upper gastrointestinal transit in normal mice, mice were randomly assigned to 2 groups (14 animals per test group). Each group received daily subcutaneous injection (total volume […]) of either A2G-GLP-2 peptide (50 μg/mouse) or the phosphate-buffered saline vehicle for 10 consecutive days.
On the day of study, upper gastrointestinal transit was measured using the carmine dye technique. Mice were fed a test meal of 0.25 ml of a 6% (w/v) solution of carmine cochineal powder mixed into 0.5% (w/v) methylcellulose administered intragastrically by an 18 gauge curved feeding tube. Following oral test meal administration, mice were replaced into their home cages. Twenty minutes after marker meal administration, mice were rapidly euthanized by cervical dislocation and the entire gastrointestinal tract was excised starting from the distal colon and working towards the gastric pylorus. […] The linear distance traversed by the carmine dye front through the small intestine was measured together with the total length of the small bowel. Upper gastrointestinal transit was expressed as the percentage of the entire small intestine traversed by the carmine dye front during the 20-minute test period: % small intestine traveled =[distance traversed by dye front through small intestine (cm)/entire small intestine length (cm)×100].

CD1 mice = assay: Mucosal wet weight of small intestine after 10 daily subcutaneous injections; assay type: in vivo; conditions: 2.5 mg/kg (13.3 nmole) daily s.c. 10 days; p<0.0001
Source text: Afterwards, the mice were euthanized and the small intestines were removed, flushed with saline, and processed as described below.
Specifically, 4 cm sections were harvested: (1) immediately distal to the pylorus (duodenum), (2) starting 2 cm distal of the ligament of Treitz (jejunum), and (3) immediately proximal to the cecum (ileum). The remaining small intestine from ˜6 cm distal of the ligament of Treitz to 4 cm proximal to the cecum was used to prepare mucosal scrapings. From the proximal and distal ends of the remnant, an equal distance was removed until a 15 cm section remained, the remnant was cut longitudinally, rinsed, and the mucosal layer was removed using the short end of a glass microscope slide. The wet weight of the intact intestinal segments and mucosa was measured.

[4] = background statement; cited from earlier work
mutated human GLP-2R = biological target: T1, mutated human GLP-2R (Homo sapiens, UniProt O95838, E512D/G511A/L513V); assay: cAMP expression assay in HEK 293E clonal cell line expressing mutated human GLP-2R; assay type: cell-based; conditions: Table 2; mimetibodies with Pro substitution; read-out: EC50
T1 construct: expressed in transfected cells; host or cells: HEK 293E clonal cell line
T1 sequence (O95838 1-553 G511A/E512D/L513V): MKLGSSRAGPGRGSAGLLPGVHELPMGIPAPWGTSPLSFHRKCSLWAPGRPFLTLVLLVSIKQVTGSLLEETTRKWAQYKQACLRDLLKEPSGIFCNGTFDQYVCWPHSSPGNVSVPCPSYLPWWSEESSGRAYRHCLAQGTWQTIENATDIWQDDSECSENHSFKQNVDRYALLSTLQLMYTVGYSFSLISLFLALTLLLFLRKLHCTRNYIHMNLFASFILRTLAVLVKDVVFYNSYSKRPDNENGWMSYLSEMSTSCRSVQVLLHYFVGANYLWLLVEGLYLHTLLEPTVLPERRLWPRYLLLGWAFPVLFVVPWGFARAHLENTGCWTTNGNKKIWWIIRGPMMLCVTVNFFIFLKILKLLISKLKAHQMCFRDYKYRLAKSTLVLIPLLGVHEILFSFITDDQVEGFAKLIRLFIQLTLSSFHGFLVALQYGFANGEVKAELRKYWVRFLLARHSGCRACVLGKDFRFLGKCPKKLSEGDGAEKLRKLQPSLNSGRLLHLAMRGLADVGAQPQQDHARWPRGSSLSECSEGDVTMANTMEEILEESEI
Source text: To achieve this goal, a clonal cell line expressing a mutated human GLP-2R was generated by transfecting HEK 293E cells. The mutated human GLP-2R differs from the wild-type human GLP-2R (SEQ ID NO: 35) at three amino acid positions within the C-terminal intracellular region (SEQ ID NO: 36).
The cAMP expression was quantitated using the cAMP Direct Screen System (Cat. No. CSD 200, Applied Biosystems, Bedford, Mass.).
This assay was based on the cAMP Direct Screen System from Applied Biosystems utilizing a cell line expressing mutated huGLP-2R in HEK 293E cells. Peptide at concentrations ranging from 0.01 nM to 1.0 uM in PBS with 0.5% BSA was added to ˜50,000 cells suspended in 96-well plates. After a 30-minute incubation at 37° C., Lysis Buffer followed by luminescence reagents (Applied Biosystems) was added according to the manufacturers' procedures (Applied Biosystems Luminescence protocol: cAMP-Screen Direct System). Luminescence was quantitated using a TopCount liquid scintillation analyzer (PerkinElmer), and data was processed using Softmax software (Molecular Devices Corporation).

[5] = Incubation with U937 cell lysate, SDS-PAGE (proteolysis resistance); assay type: in vitro ADME; conditions: 0, 12, 24 hours; in comparison with A2G GLP-2 mimetibody (SEQ ID NO: 5); FIG. 1
Protocol: The purified Pro substitution variants were incubated with U937 cell lysate in the presence of CompleteMini protease inhibitor tablets (Cat. No. 1 836 153, Roche Applied Science, Indianapolis, Ind.) for 0, 12, or 24 hours. Afterwards, GLP-2 mimetibody variants were purified using Protein A beads and resolved on a SDS-PAGE gel.

[6] = biological target: the molecule itself; assay: SEC-SLS, self-association at 1 mg/ml in PBS pH 7.5
Protocol: as §1

[7] = SEC-SLS analysis of mimetibodies (monomer/dimer); assay type: physicochemical; conditions: purified from HEK 293E/HEK 293 expression

Molecule: CC[C@H](C)[C@H](NC(=O)[C@H](Cc1ccccc1)NC(=O)[C@H](CC(=O)O)NC(=O)[C@H](CCCNC(=N)N)NC(=O)[C@H](C)NC(=O)[C@H](C)NC(=O)[C@H](CC(C)C)NC(=O)[C@H](CC(N)=O)NC(=O)[C@H](CC(=O)O)NC(=O)[C@H](CC(C)C)NC(=O)[C@@H](NC(=O)[C@@H](NC(=O)[C@H](CC(N)=O)NC(=O)[C@H](CCSC)NC(=O)[C@H](CCC(=O)O)NC(=O)[C@H](CC(=O)O)NC(=O)[C@H](CO)NC(=O)[C@H](Cc1ccccc1)NC(=O)[C@H](CO)NC(=O)CNC(=O)[C@H](CC(=O)O)NC(=O)CNC(=O)[C@@H](N)Cc1c[nH]cn1)[C@@H](C)O)[C@@H](C)CC)C(=O)N[C@@H](CC(N)=O)C(=O)N[C@@H](Cc1c[nH]c2ccccc12)C(=O)N[C@@H](CC(C)C)C(=O)N[C@H](C(=O)N[C@@H](CCC(N)=O)C(=O)N[C@H](C(=O)N[C@@H](CCCCN)C(=O)N[C@H](C(=O)N[C@H](C(=O)N[C@@H](CC(=O)O)C(=O)O)[C@@H](C)O)[C@@H](C)CC)[C@@H](C)O)[C@@H](C)CC [SEQ ID NO: 3]
SEC-SLS elution / self-association state [1]: overlapping dimer and monomer peaks
TFE required for helical transformation (helical propensity) [2]: ~16 % TFE
Helix (percentage of helical structure) [3]: 20.7%
Random coil (percentage) [3]: 37.1%
upper gastrointestinal transit (% small intestine traveled by carmine dye front) (mice; listed as A2G-GLP-2): acceleration of upper gastrointestinal transit
upper gastrointestinal transit (% small intestine traveled by carmine dye front) (mice; listed as A2G-GLP-2 peptide): significant acceleration of intestinal transit
increase in mucosal wet weight (CD1 mice): statistically significant increase

Molecule: CC[C@H](C)[C@H](NC(=O)[C@H](Cc1ccccc1)NC(=O)[C@H](CC(=O)O)NC(=O)[C@H](CCCNC(=N)N)NC(=O)[C@H](C)NC(=O)[C@H](C)NC(=O)[C@H](CC(C)C)NC(=O)[C@H](CC(N)=O)NC(=O)[C@H](CC(=O)O)NC(=O)[C@H](CC(C)C)NC(=O)[C@@H](NC(=O)[C@@H](NC(=O)[C@H](CC(N)=O)NC(=O)[C@H](CCSC)NC(=O)[C@H](CCC(=O)O)NC(=O)[C@H](CC(=O)O)NC(=O)[C@H](CO)NC(=O)[C@H](Cc1ccccc1)NC(=O)[C@H](CO)NC(=O)CNC(=O)[C@H](CC(=O)O)NC(=O)CNC(=O)[C@@H](N)Cc1c[nH]cn1)[C@@H](C)O)[C@@H](C)CC)C(=O)N[C@@H](CC(N)=O)C(=O)N[C@@H](Cc1c[nH]c2ccccc12)C(=O)N[C@@H](CC(C)C)C(=O)N[C@H](C(=O)N[C@@H](CCC(N)=O)C(=O)N[C@H](C(=O)N[C@@H](CCCCN)C(=O)N[C@H](C(=O)N[C@H](C(=O)N[C@@H](CC(=O)O)C(=O)O)[C@@H](C)O)[C@@H](C)CC)[C@@H](C)O)[C@@H](C)CC [teduglutide]
half-life [4]: less than 30 minutes

B1: A2G GLP-2 peptide (peptide)
peptide: HGDGSFSDEMNTILDNLAARDFINWLIQTKITD
notes: Analog of human GLP-2 with Ala2 changed to Gly; also called A2G peptide; GLP-2(A2G)
binding result [6]: binds

B2: SEQ ID NO: 4: A2S GLP-2 mimetibody, IgG4 Hg-CH2-CH3 with S228P and P234A/L235A (protein)
chain: HSDGSFSDEMNTILDNLAARDFINWLIQTKITDGSGGGSGTLVTVSSESKYGPPCPPCPAPEAAGGPSVFLFPPKPDTLMISRTPEVTCVVVDVSQEDPEVQFNWYVDGVEVHNAKTKPREEQFNSTYRVVSVLTVLHQDWLNGKEYKCKVSNKGLPSSIEKTISKAKGQPREPQVYTLPPSQEEMTKNQVSLTCLVKGFYPSDIAVEWESNGQPENNYKTTPPVLDSDGSFFLYSRLTVDKSRWQEGNVFSCSVMHEALHNHYTQKSLSLSLGK
modifications: Mimetibody
SEC-SLS association state of mimetibody [7]: dimer

Second part, led by results:

EC50 (mutated human GLP-2R): 4.8 nM
Molecule: SEQ ID NO: 43: GLP-2 mimetibody Pro substitution variant; core HGDGSFSDEMNTILDNLAARDFINWLIQTKITDGSGGGSGALVAVPSESKYGPPCPPCP (Mimetibody)
degradation after incubation with U937 cell lysate [5]: less degradation

EC50 (mutated human GLP-2R): 7.7 nM
Molecule: SEQ ID NO: 44: GLP-2 mimetibody Pro substitution variant; core HGDGSFSDEMNTILDNLAARDFINWLIQTKITDGSGGGSGALVAVSPESKYGPPCPPCP (Mimetibody)
degradation after incubation with U937 cell lysate [5]: less degradation
